Earlier results, collected in patent publication US10870689B2, “ApoM-Fc fusion proteins, complexes thereof with sphingosine 1-phosphate (S1P), and methods for treating vascular and non-vascular diseases” (Children's Medical Center Corporation, priority 2016, dated 2020).

Target: T1, S1P1 (Homo sapiens, UniProt P21453)
T1 construct: expressed in transfected cells
Details: Hofmann et al. 2009; Tsukada et al. 2007

T1 sequence (P21453 whole entry, species assumed): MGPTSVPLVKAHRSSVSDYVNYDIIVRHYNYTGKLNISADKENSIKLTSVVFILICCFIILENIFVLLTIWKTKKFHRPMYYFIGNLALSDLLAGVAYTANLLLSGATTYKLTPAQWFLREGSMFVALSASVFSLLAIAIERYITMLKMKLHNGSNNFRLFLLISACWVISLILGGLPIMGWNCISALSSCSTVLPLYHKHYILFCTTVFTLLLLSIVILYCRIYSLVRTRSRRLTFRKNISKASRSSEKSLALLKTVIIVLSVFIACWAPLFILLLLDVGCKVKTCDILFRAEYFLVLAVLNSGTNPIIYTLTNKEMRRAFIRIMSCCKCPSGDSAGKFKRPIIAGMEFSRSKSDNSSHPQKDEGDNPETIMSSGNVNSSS

effect on cardiac rhythm: induced abnormal cardiac rhythm
SMILES: FC(F)(F)c1cccc(-c2noc(-c3cc(-c4ccccc4)c(C(F)(F)F)s3)n2)c1 [SEW2871]
